Experimental data taken from patent US4175081A, “5-Substituted thiadiazole ureas” (priority 1977, dated 1979).

Tests used:
[1] = system: Yellow foxtail grass (YF); experiment: Pre-emergence herbicide test; format: in vivo, Setaria glauca; settings: Setaria, 336 h, two weeks after treatment; for pest or weed control at 4483.4 g/ha: 4 lb/acre
Method in brief: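 Visual rating of injury/control made two weeks after a pre-emergence spray of 8 or 4 lbs active per acre (38 gal/acre) onto pots seeded the previous day. Greenhouse watering by sub-irrigation only.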

[2] = system: Cotton (CT); experiment: Post-emergence herbicide test; format: in vivo, Gossypium hirsutum var. DPL smooth leaf; settings: Gossypium hirsutum, post-emergence, 336 h, two weeks after treatment; for pest or weed control at 4483.4 g/ha: 4 lb/acre
Method in brief: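 This greenhouse post-emergence test measured how well spray treatments controlled cotton. Seedlings of Gossypium hirsutum var. DPL smooth leaf, with expanded cotyledons and a first true leaf 1' in length, were sprayed with 50 ml formulations in a belt-fed spray hood. They were then returned to the greenhouse and watered only by sub-irrigation. Injury was scored visually as % control after two weeks.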

[3] = system: Yellow foxtail grass (YF); experiment: Post-emergence herbicide test; format: in vivo, Setaria glauca; settings: Setaria, 336 h, two weeks after treatment; for pest or weed control at 4483.4 g/ha: 4 lb/acre
Method in brief: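 Visual rating of injury/control made 2 weeks post-spray. Seedlings at a uniform growth stage in soil-filled pots received a hood spray of 8 lbs/acre active compound, 38 gallons/acre volume, with a 4 lbs/acre rate also formulated. Watering was by sub-irrigation only.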

[4] = system: Barnyard grass (BG); experiment: Pre-emergence herbicide test; format: in vivo; settings: Echinochloa crus-galli, 336 h, two weeks after treatment; for pest or weed control at 4483.4 g/ha: 4 lb/acre
Method in brief: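 Greenhouse pre-emergence spray test: pots seeded one day before treatment received compound at rates of 8 or 4 lb/acre (38 gal/acre). Visual injury/control scores for Echinochloa crus-galli taken at two weeks, with watering by sub-irrigation only.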

[5] = system: Crabgrass (CG); experiment: Pre-emergence herbicide test; format: in vivo, Digitaria sanquinalis; settings: Digitaria sanguinalis, pre-emergence, 336 h, two weeks after treatment; for pest or weed control at 4483.4 g/ha: 4 lb/acre
Method in brief: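 Crabgrass (Digitaria sanquinalis) was surface seeded in 3' plastic pots of potting soil, covered with screened soil, and watered by sub-irrigation in greenhouse trays. Pots were seeded one day before spraying in a hood with a moving belt and fixed nozzle. Plants stayed in the greenhouse on sub-irrigation, and pre-emergence control was rated visually two weeks after treatment.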

[6] = system: Crabgrass (CG); experiment: Post-emergence herbicide test; format: in vivo, Digitaria sanquinalis; settings: Digitaria sanguinalis, post-emergence, 336 h, two weeks after treatment; for pest or weed control at 4483.4 g/ha: 4 lb/acre
Method in brief: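 Crabgrass (Digitaria sanquinalis) was surface seeded individually in 3' plastic pots of potting soil, covered with screened soil, and watered by sub-irrigation in greenhouse trays. Planting was staggered so seedlings reached the target stage together. Post-emergence sprays were applied in a hood with a removable belt and fixed nozzle, and control was visually rated two weeks after treatment.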

[7] = system: Johnson grass (JG); experiment: Pre-emergence herbicide test; format: in vivo, Sorgum helepense; settings: Sorghum halepense, 336 h, two weeks after treatment; for pest or weed control at 4483.4 g/ha: 4 lb/acre
Method in brief: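 Visual injury or control rating two weeks post-treatment, after pre-emergence spray of 8 or 4 lbs active per acre (38 gal/acre) onto pots sown the previous day. Greenhouse watering by sub-irrigation only.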

[8] = system: Corn (CN); experiment: Pre-emergence herbicide test; format: in vivo; settings: Zea mays, 336 h, two weeks after treatment; for pest or weed control at 4483.4 g/ha: 4 lb/acre
Method in brief: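 Visual injury/control ratings were made 2 weeks post-spray on corn pots seeded (4 seeds, seed-diameter depth) the day before treatment. Application was a belt-hood spray of 38 gal/acre delivering 8 lbs active per acre, with a 4 lbs/acre rate also formulated. Watering was by sub-irrigation throughout.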

[9] = system: Bean (BN); experiment: Post-emergence herbicide test; format: in vivo, Phaseolus vulgaris var. Black Valentine; settings: Phaseolus vulgaris, post-emergence, 336 h, two weeks after treatment; for pest or weed control at 4483.4 g/ha: 4 lb/acre
Method in brief: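 Bean seedlings (Phaseolus vulgaris var. Black Valentine) were grown in potting soil in 3' pots until the primary leaves expanded. They were then sprayed under a hood with a removable belt and fixed nozzle, using 50 ml formulations. Afterward they were returned to the greenhouse and watered only by sub-irrigation. Percent control was judged visually two weeks after treatment.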

[10] = system: Amaranth pigweed (PW); experiment: Pre-emergence herbicide test; format: in vivo, Amaranthus retroflexus; settings: 336 h, two weeks after treatment; for pest or weed control at 4483.4 g/ha: 4 lb/acre
Method in brief: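 Visual injury or control ratings were made at two weeks on pre-emergence pots, sub-irrigated in the greenhouse. Seeds were sown a day before a hood spray delivering 8 lbs/acre (or 4 lbs/acre) of compound in 38 gallons per acre.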

[11] = system: Cotton (CT); experiment: Pre-emergence herbicide test; format: in vivo, Gossypium hirsutum var. DPL smooth leaf; settings: Gossypium hirsutum, 336 h, two weeks after treatment; for pest or weed control at 4483.4 g/ha: 4 lb/acre
Method in brief: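 Visual injury/control ratings were taken at two weeks post-spray. Pots seeded a day earlier received compound pre-emergence at 8 lbs/acre, or 4 lbs/acre, in a 38 gallon/acre spray volume, and were then held in the greenhouse, watered only from below.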

[12] = system: Corn (CN); experiment: Post-emergence herbicide test; format: in vivo; settings: Zea mays, 336 h, two weeks after treatment; for pest or weed control at 4483.4 g/ha: 4 lb/acre
Method in brief: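 Greenhouse seedlings grown in potting soil and sprayed post-emergence at 8 lbs compound/acre (formulations also made for 4 lbs/acre) in 38 gallons/acre spray volume. Watering by sub-irrigation only. Injury or control rated visually two weeks after treatment.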

[13] = system: Johnson grass (JG); experiment: Post-emergence herbicide test; format: in vivo, Sorgum helepense; settings: Sorghum halepense, 336 h, two weeks after treatment; for pest or weed control at 4483.4 g/ha: 4 lb/acre
Method in brief: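 Visual injury or control scores taken 2 weeks after a post-emergence spray of pot-grown plants. Application was 8 lbs/acre (or 4 lbs/acre) in 38 gal/acre. Plants were held in the greenhouse with sub-irrigation only.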

[14] = system: Amaranth pigweed (PW); experiment: Post-emergence herbicide test; format: in vivo, Amaranthus retroflexus; settings: 336 h, two weeks after treatment; for pest or weed control at 4483.4 g/ha: 4 lb/acre
Method in brief: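 Visual injury or control ratings were made two weeks after spraying, with greenhouse watering by sub-irrigation only. Treatment was post-emergence, when pigweed seedlings had 1 or 2 true leaves, at 8 lbs active compound per acre (4 lbs/acre formulations also made) in a 38 gallons-per-acre spray volume.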

[15] = system: Turnip (TP); experiment: Post-emergence herbicide test; format: in vivo, Brassica sp.; settings: Brassica rapa, post-emergence, 336 h, two weeks after treatment; for pest or weed control at 4483.4 g/ha: 4 lb/acre
Method in brief: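 A greenhouse post-emergence herbicide test on turnip. Seeds were sown on the surface of potting soil in 3' plastic pots, lightly covered with screened soil and watered from below. Planting was timed so seedlings had 1 or 2 true leaves above the cotyledons at spraying, done in a hood with a fixed nozzle. Control or injury was scored by eye after two weeks.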

[16] = system: Bean (BN); experiment: Pre-emergence herbicide test; format: in vivo, Phaseolus vulgaris var. Black Valentine; settings: Phaseolus vulgaris, 336 h, two weeks after treatment; for pest or weed control at 4483.4 g/ha: 4 lb/acre
Method in brief: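 Visual injury/control ratings were taken two weeks post-spray on sub-irrigated Phaseolus vulgaris var. Black Valentine. Pots were sown a day before treatment. Pre-emergence spray delivered 8 lbs actual compound per acre (or 4 lbs/acre) at 38 gallons per acre.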

[17] = system: Turnip (TP); experiment: Pre-emergence herbicide test; format: in vivo, Brassica sp.; settings: Brassica rapa, pre-emergence, 336 h, two weeks after treatment; for pest or weed control at 4483.4 g/ha: 4 lb/acre
Method in brief: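 In this pre-emergence greenhouse test, turnip was seeded on the surface of potting soil in 3' plastic pots, lightly covered with screened soil, and watered from below. One day later the pots were sprayed in a belt-fed spray hood. Watering continued only by sub-irrigation, and percent control was visually scored two weeks after treatment.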

[18] = system: Barnyard grass (BG); experiment: Post-emergence herbicide test; format: in vivo; settings: Echinochloa crus-galli, 336 h, two weeks after treatment; for pest or weed control at 4483.4 g/ha: 4 lb/acre
Method in brief: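 Greenhouse pot-grown barnyard grass seedlings sprayed post-emergence at 8 lbs active compound per acre (some at 4 lbs/acre) in 38 gallons per acre, then sub-irrigated. Injury or control rated visually two weeks after treatment.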

In the case of `CNC(=O)N(C)c1nnc(C(C)(C)C)s1` [Example 42], the pest or weed control at 2241.7 g/ha ([1]; 2 lb/acre) is reported as 90%, the pest or weed control at 4483.4 g/ha [1] is reported as 80% and the pest or weed control at 8966.8 g/ha ([1]; 8 lb/acre) is reported as 90%. For the same molecule, the pest or weed control at 2241.7 g/ha ([2]; 2 lb/acre) was 100%, the pest or weed control at 4483.4 g/ha [2] was 100% and the pest or weed control at 8966.8 g/ha ([2]; 8 lb/acre) was 100%. The pest or weed control ([3]; 2 lb/acre) was 90%, the pest or weed control at 4483.4 g/ha [3] was 90% and the pest or weed control at 8966.8 g/ha ([3]; 8 lb/acre) was 100%. The pest or weed control at 2241.7 g/ha ([4]; 2 lb/acre) was 80%, the pest or weed control at 4483.4 g/ha [4] was 90% and the pest or weed control at 8966.8 g/ha ([4]; 8 lb/acre) was 90%. It also gave a pest or weed control ([5]; 2 lb/acre) of 90%, a pest or weed control at 4483.4 g/ha [5] of 90% and a pest or weed control at 8966.8 g/ha ([5]; 8 lb/acre) of 90%. It also gave a pest or weed control ([6]; 2 lb/acre) of 40%, a pest or weed control at 4483.4 g/ha [6] of 70% and a pest or weed control at 8966.8 g/ha ([6]; 8 lb/acre) of 100%. The pest or weed control at 2241.7 g/ha ([7]; 2 lb/acre) was 70%, the pest or weed control at 4483.4 g/ha [7] was 90% and the pest or weed control at 8966.8 g/ha ([7]; 8 lb/acre) was 100%. It also gave a pest or weed control at 2241.7 g/ha ([8]; 2 lb/acre) of 0%, a pest or weed control at 4483.4 g/ha [8] of 60% and a pest or weed control at 8966.8 g/ha ([8]; 8 lb/acre) of 90%. The pest or weed control at 2241.7 g/ha ([9]; 2 lb/acre) was 80%, the pest or weed control at 4483.4 g/ha [9] was 100% and the pest or weed control at 8966.8 g/ha ([9]; 8 lb/acre) was 100%. For the same molecule, the pest or weed control at 2241.7 g/ha ([10]; 2 lb/acre) was 100%, the pest or weed control at 4483.4 g/ha [10] was 100% and the pest or weed control at 8966.8 g/ha ([10]; 8 lb/acre) was 100%. For the same molecule, the pest or weed control at 2241.7 g/ha ([11]; 2 lb/acre) was 30%, the pest or weed control at 4483.4 g/ha [11] was 70% and the pest or weed control at 8966.8 g/ha ([11]; 8 lb/acre) was 90%. It also gave a pest or weed control ([12]; 2 lb/acre) of 70%, a pest or weed control at 4483.4 g/ha [12] of 70% and a pest or weed control at 8966.8 g/ha ([12]; 8 lb/acre) of 100%. For the same molecule, the pest or weed control ([13]; 2 lb/acre) was 70%, the pest or weed control at 4483.4 g/ha [13] was 90% and the pest or weed control at 8966.8 g/ha ([13]; 8 lb/acre) was 100%. It also gave a pest or weed control at 2241.7 g/ha ([14]; 2 lb/acre) of 100%, a pest or weed control at 4483.4 g/ha [14] of 100% and a pest or weed control at 8966.8 g/ha ([14]; 8 lb/acre) of 100%. For the same molecule, the pest or weed control at 2241.7 g/ha ([15]; 2 lb/acre) was 100%, the pest or weed control at 4483.4 g/ha [15] was 100% and the pest or weed control at 8966.8 g/ha ([15]; 8 lb/acre) was 100%. It also gave a pest or weed control at 2241.7 g/ha ([16]; 2 lb/acre) of 40%, a pest or weed control at 4483.4 g/ha [16] of 90% and a pest or weed control at 8966.8 g/ha ([16]; 8 lb/acre) of 100%. For the same molecule, the pest or weed control at 2241.7 g/ha ([17]; 2 lb/acre) was 100%, the pest or weed control at 4483.4 g/ha [17] was 90% and the pest or weed control at 8966.8 g/ha ([17]; 8 lb/acre) was 100%. It also gave a pest or weed control at 2241.7 g/ha ([18]; 2 lb/acre) of 90%, a pest or weed control at 4483.4 g/ha [18] of 90% and a pest or weed control at 8966.8 g/ha ([18]; 8 lb/acre) of 100%.
Molecule `CN(C)C(=O)N(C)c1nnc(C(C)(C)C)s1` [Example 43] has a pest or weed control at 4483.4 g/ha [1] of 100%, a pest or weed control at 4483.4 g/ha [2] of 100% and a pest or weed control at 4483.4 g/ha [3] of 100%. For the same molecule, the pest or weed control at 4483.4 g/ha [4] was 100%, the pest or weed control at 4483.4 g/ha [5] was 100% and the pest or weed control at 4483.4 g/ha [6] was 100%. It also gave a pest or weed control at 4483.4 g/ha [7] of 90%, a pest or weed control at 4483.4 g/ha [8] of 90% and a pest or weed control at 4483.4 g/ha [9] of 100%. For the same molecule, the pest or weed control at 4483.4 g/ha [10] was 100%, the pest or weed control at 4483.4 g/ha [11] was 90% and the pest or weed control at 4483.4 g/ha [12] was 100%. The pest or weed control at 4483.4 g/ha [13] was 100%, the pest or weed control at 4483.4 g/ha [14] was 100% and the pest or weed control at 4483.4 g/ha [15] was 100%. The pest or weed control at 4483.4 g/ha [16] was 90%, the pest or weed control at 4483.4 g/ha [17] was 100% and the pest or weed control at 4483.4 g/ha [18] was 100%.
